Laboratory results from patent US20060166900A1, “Salt of morphine-6-glucuronide” (CeNeS Limited, priority 2002, published 2006).

Assays:
Format in all cases: physicochemical
[1] = Water content by Karl Fisher analysis on storage (Example 3)
How it was run: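 900 mg aliquots were held in argon-flushed brown opaque HDPE bottles at 25 °C/60% RH, 40 °C/75% RH and 60 °C. At each time point, water content (% w/w) was determined in duplicate on about 100 mg of equilibrated material by Karl Fischer titration.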

[2] = Stability indicating HPLC assay and related substances on storage (Example 3)
[3] = Visual appearance on storage (Example 3)
How it was run: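 Aliquots (900 mg) kept at 2-8 °C beforehand were stored in argon-flushed brown opaque HDPE bottles at 25 °C/60% RH, 40 °C/75% RH and 60 °C. Visual appearance was assessed at set time points.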

[4] = Colour of solution by visible spectrophotometry on storage (Example 3); details: 5% w/v solution in water
How it was run: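 5% w/v aqueous solution, absorbance at 420 nm in a 1 cm silica cell. Samples were stored in argon-flushed brown opaque HDPE bottles at 25° C./60% RH, 40° C./75% RH and 60° C.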

[5] = Stability of M6G salts at room temperature over 6 years, HPLC; details: for Assay M6G corr.: content calculated as M6G derivative; for degradation / discolouration: storage at room temperature for six years, hydrobromide
[6] = almost 6 years at room temperature
[7] = listed as hydrobromide salt of M6G

SMILES: Br.CN1CC[C@]23c4c5ccc(O)c4O[C@H]2[C@@H](O[C@@H]2O[C@H](C(=O)O)[C@@H](O)[C@H](O)[C@H]2O)C=C[C@H]3[C@H]1C5 [Morphine-6-glucuronide hydrobromide]
- Moisture ([1]; 1 month, 25° C./60% RH): 2.56 % w/w
- Moisture ([1]; 1 month, 40° C./75% RH): 3.19 % w/w
- Moisture ([1]; 1 month, 60° C.): 1.95 % w/w
- Moisture ([1]; 3 months, 25° C./60% RH): 3.28 % w/w
- Moisture ([1]; 3 months, 40° C./75% RH): 4.24 % w/w
- Moisture ([1]; Initial): 2.38 % w/w
- Known Related Substances HN33177 ([2]; 1 month, 25° C./60% RH): 0.74%
- Known Related Substances HN75083 ([2]; 1 month, 25° C./60% RH): 0.03%
- M6G Assay, Anhydrous basis ([2]; 1 month, 25° C./60% RH): 85.18 % w/w
- M6G Assay, As is basis ([2]; 1 month, 25° C./60% RH): 83.02 % w/w
- M6G Assay, Corrected for the salt form ([2]; 1 month, 25° C./60% RH): 100.11 % w/w
- Total Known ([2]; 1 month, 25° C./60% RH): 0.77%
- Total Related Substances ([2]; 1 month, 25° C./60% RH): 0.84%
- Total Unknown ([2]; 1 month, 25° C./60% RH): 0.07%
- Known Related Substances HN33177 ([2]; 1 month, 40° C./75% RH): 0.74%
- Known Related Substances HN75076 ([2]; 1 month, 40° C./75% RH): 0.01%
- Known Related Substances HN75083 ([2]; 1 month, 40° C./75% RH): 0.05%
- M6G Assay, Anhydrous basis ([2]; 1 month, 40° C./75% RH): 85.09 % w/w
- M6G Assay, As is basis ([2]; 1 month, 40° C./75% RH): 82.40 % w/w
- M6G Assay, Corrected for the salt form ([2]; 1 month, 40° C./75% RH): 100.01 % w/w
- Total Known ([2]; 1 month, 40° C./75% RH): 0.80%
- Total Related Substances ([2]; 1 month, 40° C./75% RH): 0.80%
- Total Unknown ([2]; 1 month, 40° C./75% RH): 0.00%
- Known Related Substances HN33177 ([2]; 1 month, 60° C.): 0.66%
- Known Related Substances HN67003 ([2]; 1 month, 60° C.): 0.10%
- Known Related Substances HN75076 ([2]; 1 month, 60° C.): 0.04%
- Known Related Substances HN75083 ([2]; 1 month, 60° C.): 0.02%
- M6G Assay, Anhydrous basis ([2]; 1 month, 60° C.): 84.44 % w/w
- M6G Assay, As is basis ([2]; 1 month, 60° C.): 82.82 % w/w
- M6G Assay, Corrected for the salt form ([2]; 1 month, 60° C.): 99.25 % w/w
- Total Known ([2]; 1 month, 60° C.): 0.82%
- Total Related Substances ([2]; 1 month, 60° C.): 1.20%
- Total Unknown ([2]; 1 month, 60° C.): 0.38%
- stability based on % w/w assay ([2]; 3 month assay data): most stable
- Known Related Substances HN33177 ([2]; 3 months, 25° C./60% RH): 0.77%
- Known Related Substances HN75083 ([2]; 3 months, 25° C./60% RH): 0.04%
- M6G Assay, Anhydrous basis ([2]; 3 months, 25° C./60% RH): 86.19 % w/w
- M6G Assay, As is basis ([2]; 3 months, 25° C./60% RH): 84.30 % w/w
- M6G Assay, Corrected for the salt form ([2]; 3 months, 25° C./60% RH): 101.30 % w/w
- Total Known ([2]; 3 months, 25° C./60% RH): 0.81%
- Total Related Substances ([2]; 3 months, 25° C./60% RH): 0.93%
- Total Unknown ([2]; 3 months, 25° C./60% RH): 0.12%
- Known Related Substances HN33177 ([2]; 3 months, 40° C./75% RH): 0.70%
- Known Related Substances HN75076 ([2]; 3 months, 40° C./75% RH): 0.02%
- M6G Assay, Anhydrous basis ([2]; 3 months, 40° C./75% RH): 85.85 % w/w
- M6G Assay, As is basis ([2]; 3 months, 40° C./75% RH): 83.14 % w/w
- M6G Assay, Corrected for the salt form ([2]; 3 months, 40° C./75% RH): 100.90 % w/w
- Total Known ([2]; 3 months, 40° C./75% RH): 0.72%
- Total Related Substances ([2]; 3 months, 40° C./75% RH): 0.72%
- Total Unknown ([2]; 3 months, 40° C./75% RH): 0.00%
- increase in the amount of degradation products as measured by HPLC ([2]; 3 months, 40° C./75% RH): basically no increase
- stability assessment ([2]; 25° C./60% RH and 40° C./75% RH for 3 months and 60° C. for 1 month): stable
- Known Related Substances HN33177 ([2]; Initial): 0.72%
- Known Related Substances HN67003 ([2]; Initial): 0.04%
- Known Related Substances HN75083 ([2]; Initial): 0.10%
- M6G Assay, Anhydrous basis ([2]; Initial): 83.63 % w/w
- M6G Assay, As is basis ([2]; Initial): 82.26 % w/w
- M6G Assay, Corrected for the salt form ([2]; Initial): 98.29 % w/w
- Total Known ([2]; Initial): 0.86%
- Total Related Substances ([2]; Initial): 0.94%
- Total Unknown ([2]; Initial): 0.08%
- overall stability comparison ([2]; overall review of Example 3 data): more stable than all other salts and the base
- Appearance ([3]; 1 month, 25° C./60% RH): White crystalline powder
- Appearance ([3]; 1 month, 40° C./75% RH): White crystalline powder
- Appearance ([3]; 1 month, 60° C.): White crystalline powder
- Appearance ([3]; 3 months, 25° C./60% RH, hydrobromide): White crystalline powder
- Appearance ([3]; 3 months, 25° C./60% RH, listed as hydrobromide, hydrobromide): white crystalline solids
- Appearance ([3]; 3 months, 40° C./75% RH): White crystalline powder
- Appearance ([3]; Initial): White crystalline powder
- Colour ([4]; 1 month, 25° C./60% RH): 0.073 Abs@420 nm
- Colour ([4]; 1 month, 40° C./75% RH): 0.064 Abs@420 nm
- Colour ([4]; 1 month, 60° C.): 0.261 Abs@420 nm
- Colour ([4]; 3 months, 25° C./60% RH): 0.046 Abs@420 nm
- Colour ([4]; 3 months, 40° C./75% RH): 0.066 Abs@420 nm
- Colour ([4]; Initial): 0.029 Abs@420 nm
- HN-33177 ([5]; 0 years): 0.3%
- HN-75083 ([5]; 0 years): <0.1%
- Unknown related substances (sum area %) ([5]; 0 years): <0.1 area %
- Assay M6G corr. ([5]; 0 years): 90.7%
- HN-33177 ([5]; 6 years at ambient temperature): 0.4%
- HN-67002 ([5]; 6 years at ambient temperature): 0.5%
- HN-67003 ([5]; 6 years at ambient temperature): 0.2%
- Unknown related substances (sum area %) ([5]; 6 years at ambient temperature): 1.0 area %
- Assay M6G corr. ([5]; 6 years at ambient temperature): 96.3%
- largest unidentified peak [5, 6]: ≤ 0.4 area %
- peaks present in the chromatogram that cannot be identified by retention time [5, 6]: 4
- degradation ([5]; listed as M6G.HBr): very limited amount of degradation
- discolouration ([5]; listed as M6G.HBr): no discolouration
- degradation [5, 7]: very limited degradation
- discolouration [5, 7]: not discoloured
